Consider 8 compounds from US20070265273A1, “Pyrimidin-2-Amine Derivatives and Their Use as A2b Adenosine Receptor Antagonists” (priority 2003, published 2007).

For test [1], the target named is T1, human recombinant A2A receptor (Homo sapiens, UniProt P29274).
T1 construct: expressed in transfected cells; host or cells: HeLa (stably transfected)
In words: Adenosine 2A receptor subtype competition radioligand binding assay. The following applies: [3H]-ZM241385, Hela cell membranes. Here is the method:
Adenosine 2A Receptor Subtype Competition Radioligand Binding Assay
Membranes were prepared from Hela cells stably transfected with the human recombinant A2A receptor. For membrane preparation, cells were collected from tissue culture plates using a cell scraper, resuspended in 10-15 ml homogenization buffer (Tris-HCl 5 mM, EDTA 2 mM), homogenized, and centrifuged at 1.000 g. for 10 min. at 4° C. The supernatant was then recovered and centrifuged at 50.000 g for 1 h. at 4° C. Finally, the pellet was resuspended in 100-500 μl storage buffer (Tris-HCl 50 mM pH 7.4) where the total protein content was determined.
Competition assays were carried out incubating 5 μg of A2A-membranes, 3 nM [^3H]-ZM241385 (Tocris) as radioligand and 50 μM of unlabeled ZM241385 ligand, in a total volume of 100 μl of buffer (TrisHCl 50 μM pH 7.4, EDTA 1 mM, MgCl2 10 mM, 2 U/ml adenosin deaminase) for 30 minutes at 25° C. Samples were then filtered and washed 4 times with 250 μl of buffer (TrisHCl 50 μM pH 7.4, EDTA 1 mM, MgCl2 10 mM) using plates (Millipore MAFCN0B50) preincubated for 15 min. in 250 μl of the same buffer. Samples were counted using 30 μl of LSC Universol (ICN) in a Wallac 1450 Microbeta counter. Non specific binding was tested using 50 μM NECA.

Test [2] concerns the target T2, human recombinant A1 receptors (Homo sapiens, UniProt P30542).
T2 construct: host or cells: CHO-K1
T2 sequence (P30542 1-326): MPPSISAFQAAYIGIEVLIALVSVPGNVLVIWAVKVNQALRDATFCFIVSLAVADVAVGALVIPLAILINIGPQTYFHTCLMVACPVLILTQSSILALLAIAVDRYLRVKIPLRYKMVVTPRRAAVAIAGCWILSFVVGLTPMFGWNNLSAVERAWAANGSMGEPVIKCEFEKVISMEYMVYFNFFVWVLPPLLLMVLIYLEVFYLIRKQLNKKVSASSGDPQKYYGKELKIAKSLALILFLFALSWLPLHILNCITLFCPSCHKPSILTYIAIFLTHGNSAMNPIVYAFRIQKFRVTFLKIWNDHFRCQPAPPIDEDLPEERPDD
Kind of test: Adenosine 1 receptor subtype competition radioligand binding assay. The following applies: 1 h, [3H]-DPCPX, CHO-K1 membranes, read-out: Binding human A1, % @ 1 μM (column headed Ki (nM)). As to the method:
Adenosine I Receptor Subtype Competition Radioligand Binding Assay
CHO-K1 cells expressing human recombinant A1 receptors were purchased from Euroscreen (Belgium). For membrane preparation, cells were collected from tissue culture plates using a cell scraper, resuspended in 10-15 ml of homogenization buffer (Tris-HCl 15 mM pH 7.5, MgCl2 2 mM, EDTA 0.3 mM, EGTA 1 mM), homogenized, and centrifuged at 40.000 g for 25 minutes. The resulting pellet was resuspended in the same buffer and centrifuged again for 25 minutes. Finally, the pellet was resuspended in 500 μl of storage buffer (Tris-HCl 7.5 mM pH 7.5, MgCl2 12.5 mM, EDTA 0.3 mM, EGTA 1 mM, sucrose 250 mM) where the total protein content was determined.
Competition assays were carried out incubating 15 μg of A1-membrane preparations, 2 nM [^3H]-DPCPX (Amersham) as radioligand and 10 μM of unlabeled DPCPX ligand, in a total volume of 100 μl of buffer (Hepes 20 mM pH 7.4, NaCl 100 mM, MgCl2 10 mM, 2 U/ml adenosin deaminase) for 1 h at 25° C. Samples were filtered and washed 4 times with 250 μl of buffer (Hepes 20 mM pH 7.4, NaCl 100 mM, MgCl2 10 mM) using plates (Millipore MAFCN0B50) preincubated for 15 min. in 250 μl of the same buffer. Samples were counted using 30 μl of LSC Universol (ICN) in a Wallac 1450 Microbeta counter. Non specific binding was tested using 10 μM R-PIA.

Test [3] addresses T3, human recombinant A3 receptor (Homo sapiens, UniProt P0DMS8).
T3 construct: expressed in transfected cells; host or cells: HeLa (stably transfected)
T3 sequence (P0DMS8 1-318): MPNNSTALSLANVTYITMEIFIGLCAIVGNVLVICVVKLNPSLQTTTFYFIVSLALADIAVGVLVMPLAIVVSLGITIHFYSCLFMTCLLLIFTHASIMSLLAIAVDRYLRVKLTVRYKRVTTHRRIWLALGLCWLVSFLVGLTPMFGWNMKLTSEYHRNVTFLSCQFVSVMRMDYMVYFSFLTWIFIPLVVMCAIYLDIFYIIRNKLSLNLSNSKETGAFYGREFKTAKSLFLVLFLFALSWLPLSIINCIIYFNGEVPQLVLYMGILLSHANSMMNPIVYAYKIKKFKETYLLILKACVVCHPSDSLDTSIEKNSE
In words: Adenosine 3 receptor subtype competition radioligand binding assay. Here is the method:
Adenosine 3 Receptor Subtype Competition Radioligand Binding Assay
Membranes were prepared from Hela cells stably transfected with the human recombinant A3 receptor. For membrane preparation, cells were collected from tissue culture plates using a cell scraper, resuspended in 10-15 ml of homogenization buffer (Tris-HCl 5 mM, EDTA 2 mM), homogenized, and centrifuged at 1.000 g. for 10 min. at 4° C. The supernatant was then recovered and centrifuged at 50.000 g for 1 h. at 4° C. Finally, the pellet was resuspended in 100-500 μl of storage buffer (Tris-HCl 50 mM pH 7.4) where the total protein content was determined.
Competition assays were carried out incubating 100 μg of A3-membranes, 30 nM [^3H]-NECA (Amersham) as radioligand and 50 μM of unlabeled NECA ligand, in a total volume of 100 μl of buffer (Tris-HCl 50 mM pH 7.4, MgCl2 5 mM, EDTA 1 mM, 2 U/ml adenosine deaminase) for 3 hours at 25° C. Samples were filtered 4 times with 250 μl of buffer (Tris-HCl 50 mM pH 7.4) using plates (Millipore MAFBN0B50) preincubated for 15 min. in 250 μl of the same buffer. Samples were counted using 30 μl of LSC Universol (ICN) in a Wallac 1450 Microbeta counter. Non specific binding was tested using 100 μM of R-PIA.

Where [4] appears, read: [3H]-NECA, Hela cell membranes, read-out: Binding human A3 Ki.

pKi: −log10 of the molar value. Where two headings read alike, the source gives them in different places.

T1 sequence (P29274 whole entry): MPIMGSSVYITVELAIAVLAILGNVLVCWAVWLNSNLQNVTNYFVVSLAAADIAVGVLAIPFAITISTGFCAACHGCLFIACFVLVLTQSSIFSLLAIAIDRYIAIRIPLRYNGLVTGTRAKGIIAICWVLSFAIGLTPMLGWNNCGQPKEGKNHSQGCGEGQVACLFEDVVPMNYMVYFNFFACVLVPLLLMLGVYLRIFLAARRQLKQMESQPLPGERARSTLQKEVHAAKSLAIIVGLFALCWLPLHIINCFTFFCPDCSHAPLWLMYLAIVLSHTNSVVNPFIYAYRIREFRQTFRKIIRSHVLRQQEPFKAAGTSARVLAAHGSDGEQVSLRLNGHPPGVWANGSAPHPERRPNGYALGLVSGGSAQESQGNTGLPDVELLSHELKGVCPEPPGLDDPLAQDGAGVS

As for `c1cncc(Nc2ncc(-c3ccncn3)c(-c3ccco3)n2)c1` [Example 1, 4′-(2-Furyl)-N-pyridin-3-yl-4,5′-bipyrimidin-2′-amine], the pKi in test [1] is 5.60; in test [3] (setting [4]), 5.96. For the same compound, the inhibition at 1 µM in test [2] came to 14%.
`COc1ccc(Nc2ncc(-c3ccncn3)c(-c3ccco3)n2)cn1` [Example 2, 4′-(2-Furyl)-N-(6-methoxypyridin-3-yl)-4,5′-bipyrimidin-2′-amine]: the “Binding human A2A, % @ 1 μM (column headed Ki (nM))” value (“Binding human A2A, % @ 1 μM” below) in test [1] was 14% @ 1 μM. Also, in test [2], the inhibition at 1 µM stood at 5%. In test [3], the pKi was 5.37.
`Fc1ccc(Nc2ncc(-c3ccncn3)c(-c3ccco3)n2)cn1` [Example 4, N-(6-Fluoropyridin-3-yl)-4′-(2-furyl)-4,5′-bipyrimidin-2′-amine]: in test [1], the “Binding human A2A, % @ 1 μM” value was 21% @ 1 μM. The inhibition at 1 µM in test [2] came out at 30%. In addition, the pKi in test [3] (setting [4]) is 5.77.
With `c1cncc(Nc2ncc(-c3ccncn3)c(-c3cccs3)n2)c1` [Example 6, N-Pyridin-3-yl-4′-thien-2-yl-4,5′-bipyrimidin-2′-amine], the figures for the pKi in test [1] and in test [3] (setting [4]) were 6.21 and 6.51, respectively. The inhibition at 1 µM in test [2] amounted to 31%.
`c1cncc(Nc2ncc(-c3ccnnc3)c(-c3ccco3)n2)c1` [Example 11, 4-(2-Furyl)-5-pyridazin-4-yl-N-pyridin-3-ylpyrimidin-2-amine]: the “Binding human A2A, % @ 1 μM” value in test [1] was determined as 17% @ 1 μM. Moreover, the inhibition at 1 µM in test [2] came out at 23%. For the same compound, the pKi in test [3] (setting [4]) was 6.39.
The like results for `[O-][n+]1cccc(Nc2ncc(-c3ccncn3)c(-c3ccco3)n2)c1` [Example 12, 4′-(2-Furyl)-N-(1-oxidopyridin-3-yl)-4,5′-bipyrimidin-2′-amine] were, in that order, 7% @ 1 μM, 4% and 6.07.
For `c1coc(-c2nc(Nc3cncnc3)ncc2-c2ccncn2)c1` [Example 13, 4′-(2-Furyl)-N-pyrimidin-5-yl-4,5′-bipyrimidin-2′-amine], in that order: 15% @ 1 μM, 3% and 5.84.
For `O=c1ccc(Nc2ncc(-c3ccncn3)c(-c3ccco3)n2)c[nH]1` [Example 21, 5-{[4′-(2-Furyl)-4,5′-bipyrimidin-2′-yl]amino}pyridin-2(1H)-one], in that order: 0% @ 1 μM, 0% and 5.55.
